Assay results published in patent publication US9120805B2, “Substituted pyrrolo[1,2-A]pyrazin-1-ones and pyrazolo[1,5-A]pyrazin-4-ones as inhibitors of tankyrase and poly(ADP-ribose)polymerase activity” (Merck Patent GmbH, priority 2012, dated 2015).
Counter-ions that a name gives are not always drawn.

Biological target: T1, GST-tagged Tankyrase-1 (1023-1327 aa) (Homo sapiens, UniProt O95271)
T1 construct: GST-tagged Tankyrase-1 (1023-1327 aa)
Experiment: Tankyrase 1 autoparsylation assay (HTRF enzyme assay)
Assay type: biochemical
Conditions: not given
Method: (§1) Biochemical Activity Testing of Tankyrase 1 and 2: Autoparsylation Assay
(§2) The autoparsylation assay is run in two steps: the enzymatic reaction in which GST-tagged Tankyrase-1, resp Tankyrase-2 transferred biotinylated ADP-ribose to itself from biotinylated NAD as co-substrate and the detection reaction where a time resolved FRET between cryptate labelled anti-GST bound to the GST tag of the enzyme and Xlent® labelled-streptavidin bound the biotin-parsylation residue is analysed. The autoparsylation activity was detectable directly via the increase in HTRF signal.
(§3) The autoparsylation assay is performed as 384-well HTRF® (Cisbio, Codolet, France) assay format in Greiner low volume nb 384-well microtiter plates and is used for high throughput screen. 250 nM GST-tagged Tankyrase-1 (1023-1327 aa), respectively about 250 nM GST-tagged Tankyrase-2 (873-1166 aa) and 5 μM bio-NAD (Biolog, Life science Inst., Bremen, Germany) as co-substrate are incubated in a total volume of 5 μl (50 mM HEPES, 4 mM Mg-chloride, 0.05% Pluronic F-68, 1.4 mM DTT, 0.5% DMSO, pH 7.7) in the absence or presence of the test compound (10 dilution concentrations) for 90 min at 30° C. The reaction is stopped by the addition of 1 μl 50 mM EDTA solution. 2 μl of the detection solution (1.6 μM SA-Xlent® (Cisbio, Codolet, France), 7.4 nM Anti-GST-K® (Eu-labelled anti-GST, Cisbio, Codolet, France) in 50 mM HEPES, 800 mM KF, 0.1% BSA, 20 mM EDTA, 0.1% CHAPS, pH 7.0) are added. After 1 h incubation at room temperature the HTRF is measured with an Envision multimode reader (Perkin Elmer LAS Germany GmbH) at excitation wavelength 340 nm (laser mode) and emission wavelengths 615 nm and 665 nm. The ratio of the emission signals is determined. The full value used is the inhibitor-free reaction. The pharmacological zero value used is XAV-939 (Tocris) in a final concentration of 5 μM. The inhibitory values (IC50) are determined using either the program Symyx Assay Explorer® or Condosseo® from GeneData.

T1 sequence (O95271 1023-1327): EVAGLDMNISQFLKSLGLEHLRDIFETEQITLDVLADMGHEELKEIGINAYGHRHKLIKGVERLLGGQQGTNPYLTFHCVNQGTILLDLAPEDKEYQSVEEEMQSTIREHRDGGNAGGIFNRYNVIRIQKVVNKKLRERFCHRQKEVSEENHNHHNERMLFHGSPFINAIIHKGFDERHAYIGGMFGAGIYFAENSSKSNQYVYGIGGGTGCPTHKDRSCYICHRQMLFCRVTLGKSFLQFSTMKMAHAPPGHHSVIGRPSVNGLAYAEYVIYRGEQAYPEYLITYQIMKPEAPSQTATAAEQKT

Row | SMILES | IC50
1 | O=c1[nH]c(-c2ccc(C(F)(F)F)cc2)cn2cccc12 [Compound A13, 3-(4-trifluoromethyl-phenyl)-2H-pyrrolo[1,2-a]pyrazin-1-one] | 300 to 3000 nM
2 | O=c1[nH]c(-c2ccc(C3CCNCC3)cc2)cn2cc(F)cc12 [Compound A77, 7-fluoro-3-(4-piperidin-4-yl-phenyl)-2H-pyrrolo[1,2-a]pyrazin-1-one] | < 300 nM
3 | CN1CCC(c2ccc(-c3cn4cc(Cl)cc4c(=O)[nH]3)cc2)CC1 [Compound A82, 7-chloro-3-[4-(1-methyl-piperidin-4-yl)-phenyl]-2H-pyrrolo[1,2-a]pyrazin-1-one] | < 300 nM
4 | O=c1[nH]c(-c2ccc(C3(O)CNC3)cc2)cn2cccc12 [Compound A86, 3-[4-(3-hydroxy-azetidin-3-yl)-phenyl]-2H-pyrrolo[1,2-a]pyrazin-1-one hydrochloride] | 300 to 3000 nM
5 | Cn1cc(-c2ccc(-c3cn4cc(F)cc4c(=O)[nH]3)cc2)cn1 [Compound A90] | < 300 nM
6 | Cc1cc2c(=O)[nH]c(-c3ccc(-c4cnn(C)c4)cc3)cn2c1 [Compound A91] | < 300 nM
7 | Cc1ccc2c(=O)[nH]c(-c3ccc(Br)cc3)cn12 [Compound A94] | < 300 nM
8 | O=c1[nH]c(-c2ccc(C3(O)CCNCC3)cc2)cn2cccc12 [Compound A99] | 300 to 3000 nM

Biological target: T2, GST-tagged Tankyrase-2 (873-1166 aa) (Homo sapiens, UniProt Q9H2K2)
T2 construct: GST-tagged Tankyrase-2 (873-1166 aa)
Experiment: Tankyrase 2 autoparsylation assay (HTRF enzyme assay)
Assay type: biochemical
Conditions: not given
Method: as §1, §2, §3

T2 sequence (Q9H2K2 873-1166): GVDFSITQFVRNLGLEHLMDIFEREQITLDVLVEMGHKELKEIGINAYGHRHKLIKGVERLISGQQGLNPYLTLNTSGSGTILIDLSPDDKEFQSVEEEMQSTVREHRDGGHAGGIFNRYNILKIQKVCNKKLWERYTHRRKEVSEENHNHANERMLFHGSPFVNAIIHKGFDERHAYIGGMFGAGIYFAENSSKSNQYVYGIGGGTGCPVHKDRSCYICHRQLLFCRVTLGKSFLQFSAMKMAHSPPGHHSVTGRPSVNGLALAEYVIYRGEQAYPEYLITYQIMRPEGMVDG

Row | SMILES | IC50
9 | O=c1[nH]c(-c2ccc(C(F)(F)F)cc2)cn2cccc12 [Compound A13, 3-(4-trifluoromethyl-phenyl)-2H-pyrrolo[1,2-a]pyrazin-1-one] | < 300 nM
10 | O=c1[nH]c(-c2ccc(C3CCNCC3)cc2)cn2cc(F)cc12 [Compound A77, 7-fluoro-3-(4-piperidin-4-yl-phenyl)-2H-pyrrolo[1,2-a]pyrazin-1-one] | 300 to 3000 nM
11 | CN1CCC(c2ccc(-c3cn4cc(Cl)cc4c(=O)[nH]3)cc2)CC1 [Compound A82, 7-chloro-3-[4-(1-methyl-piperidin-4-yl)-phenyl]-2H-pyrrolo[1,2-a]pyrazin-1-one] | 300 to 3000 nM
12 | O=c1[nH]c(-c2ccc(C3(O)CNC3)cc2)cn2cccc12 [Compound A86, 3-[4-(3-hydroxy-azetidin-3-yl)-phenyl]-2H-pyrrolo[1,2-a]pyrazin-1-one hydrochloride] | 300 to 3000 nM
13 | Cn1cc(-c2ccc(-c3cn4cc(F)cc4c(=O)[nH]3)cc2)cn1 [Compound A90] | 300 to 3000 nM
14 | Cc1cc2c(=O)[nH]c(-c3ccc(-c4cnn(C)c4)cc3)cn2c1 [Compound A91] | 300 to 3000 nM
15 | Cc1ccc2c(=O)[nH]c(-c3ccc(Br)cc3)cn12 [Compound A94] | 300 to 3000 nM
16 | O=c1[nH]c(-c2ccc(C3(O)CCNCC3)cc2)cn2cccc12 [Compound A99] | 300 to 3000 nM

System: tankyrase 1/2
Experiment: Cellular inhibition of Tankyrase: increase of Axin2 level in DLD1 cells (Luminex)
Assay type: cell-based
Conditions: 24 hours, read-out: EC50 tankyrase 1/2 (cell assay)
Method: Measurement of Cellular Inhibition of Tankyrase
Since Tankyrases have been described to modulate cellular level of Axin2 (Huang et al., 2009; Nature) the increase of Axin2 level is used as read-out for determination of cellular inhibition of Tankyrases in a Luminex based assay.
Cells of the colon carcinoma cell line DLD1 are plated in 96 well plates with 1.5×10^4 cells per well. Next day, cells are treated with a serial dilution of test compound in seven steps as triplicates with a final DMSO concentration of 0.3%. After 24 hours, cells are lysed in lysis buffer (20 mM Tris/HCl pH 8.0, 150 mM NaCl, 1% NP40, 10% Glycerol) and lysates are cleared by centrifugation through a 96 well filter plate (0.65 μm). Axin2 protein is isolated from cell lysates by incubation with a monoclonal anti-Axin2 antibody (R&D Systems #MAB6078) that is bound to fluorescent carboxybeads. Then, bound Axin2 is specifically detected with a polyclonal anti-Axin2 antibody (Cell Signaling #2151) and an appropriate PE-fluorescent secondary antibody. The amount of isolated Axin2 protein is determined in a Luminex^200 machine (Luminex Corporation) according to the manufacturer's instruction by counting 100 events per well. Inhibition of Tankyrase by test compounds results in higher levels of Axin2 which directly correlates with an increase of detectable fluorescence. As controls cells are treated with solvent alone (neutral control) and with a Tankyrase reference inhibitor IWR-2 (3E-06 M) which refers as control for maximum increase of Axin2. For analysis, the obtained data are normalized against the untreated solvent control and fitted for determination of the EC50 values using the Assay Explorer software (Accelrys).

Row | SMILES | EC50
17 | O=c1[nH]c(-c2ccc(C(F)(F)F)cc2)cn2cccc12 [Compound A13, 3-(4-trifluoromethyl-phenyl)-2H-pyrrolo[1,2-a]pyrazin-1-one] | 300 to 3000 nM
18 | O=c1[nH]c(-c2ccc(C3CCNCC3)cc2)cn2cc(F)cc12 [Compound A77, 7-fluoro-3-(4-piperidin-4-yl-phenyl)-2H-pyrrolo[1,2-a]pyrazin-1-one] | 300 to 3000 nM
19 | CN1CCC(c2ccc(-c3cn4cc(Cl)cc4c(=O)[nH]3)cc2)CC1 [Compound A82, 7-chloro-3-[4-(1-methyl-piperidin-4-yl)-phenyl]-2H-pyrrolo[1,2-a]pyrazin-1-one] | 300 to 3000 nM
20 | O=c1[nH]c(-c2ccc(C3(O)CNC3)cc2)cn2cccc12 [Compound A86, 3-[4-(3-hydroxy-azetidin-3-yl)-phenyl]-2H-pyrrolo[1,2-a]pyrazin-1-one hydrochloride] | 3000 to 50000 nM
21 | Cn1cc(-c2ccc(-c3cn4cc(F)cc4c(=O)[nH]3)cc2)cn1 [Compound A90] | 300 to 3000 nM
22 | Cc1cc2c(=O)[nH]c(-c3ccc(-c4cnn(C)c4)cc3)cn2c1 [Compound A91] | 300 to 3000 nM
23 | Cc1ccc2c(=O)[nH]c(-c3ccc(Br)cc3)cn12 [Compound A94] | 300 to 3000 nM
24 | O=c1[nH]c(-c2ccc(C3(O)CCNCC3)cc2)cn2cccc12 [Compound A99] | 3000 to 50000 nM

Biological target: T3, His-tagged Parp-1 (Homo sapiens, UniProt P09874)
T3 construct: purchased Enzo Life Sciences GmbH
Experiment: PARP-1 autoparsylation assay (HTRF)
Assay type: biochemical
Conditions: PARP-1 autoparsylation HTRF assay
Excerpt: Description of the PARP1 Assay
Biochemical Activity Testing of PARP-1: Autoparsylation Assay
The autoparsylation assay is run in two steps: the enzymatic reaction in which
His-tagged Parp-1 transfers biotinylated ADP-ribose/ADP-ribose to itself from biotinylated NAD/NAD as co-substrate and the detection reaction where a time resolved FRET between cryptate labelled anti-His antibody bound to the His tag of the enzyme and Xlent® labelled-streptavidin bound the biotin-parsylation residue is analysed. The autoparsylation activity is detectable directly via the increase in HTRF signal.
The autoparsylation assay is performed as 384-well HTRF® (Cisbio, Codolet, France) assay format in Greiner low volume nb 384-well microtiter plates. 35 nM His-tagged Parp-1 (human, recombinant, Enzo Life Sciences GmbH, Lörrach, Germany) and a mixture of 125 nM bio-NAD (Biolog, Life science Inst., Bremen, Germany) and 800 nM NAD as co-substrate are incubated in a total volume of 6 μl (100 mM Tris/HCl, 4 mM Mg-chloride, 0.01% IGEPAL® CA630, 1 mM DTT, 0.5% DMSO, pH 8, 13 ng/μl activated DNA (BPS Bioscience, San Diego, US)) in the absence or presence of the test compound (10 dilution concentrations) for 150 min at 23° C. The reaction is stopped by the addition of 4 μl of the Stop/detection solution (70 nM SA-Xlent® (Cisbio, Codolet, France), 2.5 nM Anti-His-K® (Eu-labelled anti-His, Cisbio, Codolet, France) in 50 mM HEPES, 400 mM KF, 0.1% BSA, 20 mM EDTA, pH 7.0). After 1 h incubation at room temperature the HTRF is measured with an Envision multimode reader (Perkin Elmer LAS Germany GmbH) at excitation wavelength 340 nm (laser mode) and emission wavelengths 615 nm and 665 nm. The ratio of the emission signals is determined. The full value used is the inhibitor-free reaction. The pharmacological zero value used is Olaparib (LClabs, Woburn, US) in a final concentration of 1 μM. The inhibitory values (IC50) are determined using either the program Symyx Assay Explorer® or Condosseo® from GeneData.

T3 sequence (P09874 whole entry): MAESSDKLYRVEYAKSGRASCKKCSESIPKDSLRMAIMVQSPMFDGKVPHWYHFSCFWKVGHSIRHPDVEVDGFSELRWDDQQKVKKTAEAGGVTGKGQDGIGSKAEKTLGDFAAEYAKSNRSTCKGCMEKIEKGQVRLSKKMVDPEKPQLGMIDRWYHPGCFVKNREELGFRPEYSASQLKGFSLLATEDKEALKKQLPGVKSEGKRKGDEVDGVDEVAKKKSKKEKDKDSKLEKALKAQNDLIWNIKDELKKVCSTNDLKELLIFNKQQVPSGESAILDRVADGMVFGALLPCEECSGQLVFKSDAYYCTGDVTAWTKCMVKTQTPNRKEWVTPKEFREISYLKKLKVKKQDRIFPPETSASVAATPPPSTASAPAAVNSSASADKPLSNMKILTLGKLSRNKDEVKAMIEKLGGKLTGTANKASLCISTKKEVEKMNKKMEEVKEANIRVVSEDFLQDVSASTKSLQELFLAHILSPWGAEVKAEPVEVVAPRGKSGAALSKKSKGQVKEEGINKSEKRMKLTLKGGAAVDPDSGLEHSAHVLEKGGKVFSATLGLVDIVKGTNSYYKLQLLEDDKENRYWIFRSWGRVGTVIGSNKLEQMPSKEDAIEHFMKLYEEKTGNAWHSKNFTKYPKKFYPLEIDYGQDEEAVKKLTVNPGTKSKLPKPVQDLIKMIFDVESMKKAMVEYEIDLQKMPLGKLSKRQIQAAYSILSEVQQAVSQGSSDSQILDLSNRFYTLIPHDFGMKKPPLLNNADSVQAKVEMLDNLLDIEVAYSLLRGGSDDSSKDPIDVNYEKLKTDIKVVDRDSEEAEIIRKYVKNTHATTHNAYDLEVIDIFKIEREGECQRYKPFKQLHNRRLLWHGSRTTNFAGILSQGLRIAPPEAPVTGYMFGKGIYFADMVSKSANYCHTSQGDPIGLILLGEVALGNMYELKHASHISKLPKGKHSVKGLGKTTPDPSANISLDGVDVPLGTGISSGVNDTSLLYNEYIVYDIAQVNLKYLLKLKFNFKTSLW

Row | SMILES | IC50
25 | O=c1[nH]c(-c2ccc(C(F)(F)F)cc2)cn2cccc12 [Compound A13, 3-(4-trifluoromethyl-phenyl)-2H-pyrrolo[1,2-a]pyrazin-1-one] | 300 to 3000 nM
